Reference: patent US6667329B1, “Agents with antidepressant action, containing pramipexol and second antidepressant” (Boehringer Ingelheim Pharma GmbH & Co. KG, priority 1998, dated 2003)

Test system: rats
Experiment: forced swimming test in rats
Conditions: series Pramipexole + amitriptyline
Excerpt: The test can be carried out as follows for each of the combinations of active substances tested.

Row | SMILES | Immobility time [s]
1 | CN(C)CCC=C1c2ccccc2CCc2ccccc21 [Amitriptyline] | 174.6 ± 9.2
2 | CCCNC1CCc2nc(N)sc2C1.Cl.Cl (centres unmarked) [Pramipexole, 2-amino-6-n-propylamino4,5,6,7-tetrahydrobenzo-thiazole-dihydrochloride] | 164.3 ± 9.8
